Twelve compounds from patent US20260265238A1, “COMPOUNDS AND PHARMACEUTICAL COMPOSITIONS THAT DEGRADE SWI/SNF-RELATED MATRIX-ASSOCIATED ACTIN-DEPENDENT REGULATOR OF CHROMATIN SUBFAMILY A” (Plexium, Inc., priority 2023, published 2026) can be followed below.

For test [1], the target named is T1, SMARCA2-HiBiT HeLa cells (protein which is expressed from the SMARCA2 gene) (Homo sapiens, UniProt P51531).
T1 construct: protein which is expressed from the SMARCA2 and SMARCA4 genes; host or cells: HeLa (SMARCA2-HiBiT engineered line)
Put plainly: SMARCA2 degradation assay (HiBiT-fusion HeLa cell line, 24 h, luminescence). It counts as cell-based. Summed up:
(§1)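 HiBiT-fusion HeLa lines, 8,000 cells/well, overnight attachment; cpd 10-pt series (typically 10 μM–300 pM), 24 h, 37° C. Lysis with LgBiT + HiBiT substrate, 10 min shaking at RT, luminescence read. DC50 from dose-response fit; % degradation also scored at 1 μM.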

The target in test [2] is T2, SMARCA4-HiBiT HeLa cells (protein which is expressed from the SMARCA4 gene) (Homo sapiens, UniProt P51532).
T2 construct: protein which is expressed from the SMARCA2 and SMARCA4 genes; host or cells: HeLa (SMARCA4-HiBiT engineered line)
In words: SMARCA4 degradation assay (HiBiT-fusion HeLa cell line, 24 h, luminescence). It counts as cell-based. The procedure, abridged: as §1

A value given as a limit tells only on which side of the number the result lay.

T1 sequence (P51531 whole entry): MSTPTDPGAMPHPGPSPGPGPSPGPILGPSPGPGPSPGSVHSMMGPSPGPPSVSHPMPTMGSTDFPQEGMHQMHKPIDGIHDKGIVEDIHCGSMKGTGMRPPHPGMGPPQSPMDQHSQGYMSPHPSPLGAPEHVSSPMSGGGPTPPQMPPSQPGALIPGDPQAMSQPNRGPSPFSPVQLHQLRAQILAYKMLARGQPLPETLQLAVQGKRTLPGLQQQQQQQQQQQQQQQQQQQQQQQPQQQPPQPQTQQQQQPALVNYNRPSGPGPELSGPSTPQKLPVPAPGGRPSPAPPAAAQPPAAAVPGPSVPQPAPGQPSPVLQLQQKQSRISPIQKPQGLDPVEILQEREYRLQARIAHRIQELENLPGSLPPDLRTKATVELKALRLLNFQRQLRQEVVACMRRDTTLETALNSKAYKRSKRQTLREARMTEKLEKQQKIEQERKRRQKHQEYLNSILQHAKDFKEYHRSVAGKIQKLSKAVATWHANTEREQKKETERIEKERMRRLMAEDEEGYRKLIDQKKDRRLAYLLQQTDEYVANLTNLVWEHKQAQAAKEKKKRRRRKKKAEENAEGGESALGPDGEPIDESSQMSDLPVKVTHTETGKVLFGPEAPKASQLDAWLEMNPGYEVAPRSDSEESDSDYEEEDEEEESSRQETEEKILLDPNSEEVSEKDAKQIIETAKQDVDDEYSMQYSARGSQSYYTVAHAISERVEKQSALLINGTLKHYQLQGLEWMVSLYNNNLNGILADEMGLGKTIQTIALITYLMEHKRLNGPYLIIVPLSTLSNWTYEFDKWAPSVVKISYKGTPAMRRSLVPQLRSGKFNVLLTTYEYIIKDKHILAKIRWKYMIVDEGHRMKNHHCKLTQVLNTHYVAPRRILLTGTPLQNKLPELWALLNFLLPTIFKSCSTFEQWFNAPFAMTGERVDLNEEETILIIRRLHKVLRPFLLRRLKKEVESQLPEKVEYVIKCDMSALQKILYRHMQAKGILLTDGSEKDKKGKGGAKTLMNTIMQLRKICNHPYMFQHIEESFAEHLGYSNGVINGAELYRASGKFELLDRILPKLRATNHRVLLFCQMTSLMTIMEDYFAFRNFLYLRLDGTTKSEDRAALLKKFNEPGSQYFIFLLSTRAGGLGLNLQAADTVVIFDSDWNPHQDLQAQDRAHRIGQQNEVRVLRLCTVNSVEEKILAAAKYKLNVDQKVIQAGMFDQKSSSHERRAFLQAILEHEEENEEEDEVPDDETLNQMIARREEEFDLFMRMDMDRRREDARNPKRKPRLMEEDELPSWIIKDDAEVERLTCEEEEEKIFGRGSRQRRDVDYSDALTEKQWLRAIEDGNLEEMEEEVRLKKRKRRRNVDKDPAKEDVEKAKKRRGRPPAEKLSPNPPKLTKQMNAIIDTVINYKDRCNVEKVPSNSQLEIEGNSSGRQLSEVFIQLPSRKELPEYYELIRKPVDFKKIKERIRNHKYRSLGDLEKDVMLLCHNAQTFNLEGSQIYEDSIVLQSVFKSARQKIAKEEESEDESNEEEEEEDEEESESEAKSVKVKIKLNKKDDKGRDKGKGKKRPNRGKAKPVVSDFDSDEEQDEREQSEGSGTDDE
T2 sequence (P51532 whole entry): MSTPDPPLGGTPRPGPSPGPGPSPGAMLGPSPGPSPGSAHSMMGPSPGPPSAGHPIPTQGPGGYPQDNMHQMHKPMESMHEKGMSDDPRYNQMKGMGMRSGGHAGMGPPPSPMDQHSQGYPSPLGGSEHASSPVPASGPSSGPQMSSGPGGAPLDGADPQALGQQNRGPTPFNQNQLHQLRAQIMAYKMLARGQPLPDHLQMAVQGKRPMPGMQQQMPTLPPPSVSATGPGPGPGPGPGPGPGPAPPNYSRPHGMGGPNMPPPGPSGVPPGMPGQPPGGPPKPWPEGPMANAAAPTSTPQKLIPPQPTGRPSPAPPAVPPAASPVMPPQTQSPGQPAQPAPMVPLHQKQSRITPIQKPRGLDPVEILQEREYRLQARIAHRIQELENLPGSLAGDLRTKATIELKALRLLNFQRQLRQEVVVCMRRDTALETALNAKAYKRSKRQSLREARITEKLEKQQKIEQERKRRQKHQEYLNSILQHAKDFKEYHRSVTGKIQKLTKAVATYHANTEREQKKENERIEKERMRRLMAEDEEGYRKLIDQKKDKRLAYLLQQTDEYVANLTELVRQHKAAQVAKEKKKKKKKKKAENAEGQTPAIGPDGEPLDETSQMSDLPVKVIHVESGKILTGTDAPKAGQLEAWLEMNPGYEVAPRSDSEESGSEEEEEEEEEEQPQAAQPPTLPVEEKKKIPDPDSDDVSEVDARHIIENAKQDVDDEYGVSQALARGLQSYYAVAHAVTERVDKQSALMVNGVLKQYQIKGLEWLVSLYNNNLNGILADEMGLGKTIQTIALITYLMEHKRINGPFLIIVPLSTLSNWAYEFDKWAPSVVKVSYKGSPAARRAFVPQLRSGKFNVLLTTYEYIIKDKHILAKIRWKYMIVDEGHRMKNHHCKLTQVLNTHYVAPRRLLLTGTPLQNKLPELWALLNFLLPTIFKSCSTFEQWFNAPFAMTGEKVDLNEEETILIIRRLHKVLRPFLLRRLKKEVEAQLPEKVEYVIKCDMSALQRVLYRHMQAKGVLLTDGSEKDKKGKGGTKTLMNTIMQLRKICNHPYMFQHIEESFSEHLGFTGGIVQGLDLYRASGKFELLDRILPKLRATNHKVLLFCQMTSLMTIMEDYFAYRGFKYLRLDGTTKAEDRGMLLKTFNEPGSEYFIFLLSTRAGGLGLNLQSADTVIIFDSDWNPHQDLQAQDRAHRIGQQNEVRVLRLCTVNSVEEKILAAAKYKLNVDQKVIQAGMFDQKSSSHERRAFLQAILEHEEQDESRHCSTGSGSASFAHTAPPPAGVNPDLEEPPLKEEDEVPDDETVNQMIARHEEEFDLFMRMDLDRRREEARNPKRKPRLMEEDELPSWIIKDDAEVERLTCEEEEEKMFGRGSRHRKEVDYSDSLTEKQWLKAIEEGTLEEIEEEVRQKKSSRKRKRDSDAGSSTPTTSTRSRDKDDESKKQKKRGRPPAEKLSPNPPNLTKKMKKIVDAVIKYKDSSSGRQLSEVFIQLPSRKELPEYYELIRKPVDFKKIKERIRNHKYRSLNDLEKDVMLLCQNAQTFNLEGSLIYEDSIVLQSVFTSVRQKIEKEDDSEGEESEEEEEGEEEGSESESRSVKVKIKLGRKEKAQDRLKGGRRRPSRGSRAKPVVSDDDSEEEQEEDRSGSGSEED

As to `C[C@@H]1CCN(c2cc(-c3ccccc3O)nnc2N)CCN1c1ccnc(C#C[C@@H](O)C2CC2)n1` [Compound P-265, o-{5-[(R)-4-{2-[(S)-3-cyclopropyl-3-hydroxy-1-propynyl]-4-pyrimidinyl}-5-methyl-1,4-diazepan-1-yl]-6-amino-3-pyridaziny1} phenol], the 50% degradation concentration (DC50) in test [1] and in test [2] was 50 to 500 nM each time. Further, the “SMARCA2 % Degradation @ 1 μM” value in test [1] (@ 1 μM) was “+++ (+++=>70%)”. For the same compound, the inhibition at 1 µM in test [2] was > 70%.
Turning to `Nc1nnc(-c2ccccc2O)cc1N1CCCN(c2ccnc(C#CC3COC3)n2)CC1` [Compound P-347, 0-[6-amino-5-(4-{2-[2-(3-oxetanyl)ethynyl]-4-pyrimidinyl}-1,4-diazepan-1-yl)-3-pyridazinyl]phenol], the DC50 in test [1] lay in the range of 50 to 500 nM. The “SMARCA2 % Degradation @ 1 μM” value in test [1] (@ 1 μM) is listed as “+++ (+++=>70%)”. Also, in test [2], the DC50 was 50 to 500 nM and the inhibition at 1 µM was > 70%.
`Cn1ccnc1C#Cc1nccc(N2CCCN(c3cc(-c4ccccc4O)nnc3N)CC2)n1` [Compound P-354] displayed a 50% degradation concentration (DC50) in test [1] of 500 to 5000 nM. In test [1] (@ 1 μM), the “SMARCA2 % Degradation @ 1 μM” value was “++ (++=30-70%)”. In test [2], this compound came in with a 50% degradation concentration (DC50) of 500 to 5000 nM and an inhibition at 1 µM of 30 to 70%.
For `C[C@@H]1CCN(c2cc(-c3ccccc3O)nnc2N)CCN1c1cc(C#CCN(C)C)ncc1Cl` [Compound P-409, 0-{5-[(R)-4-{5-chloro-2-[3-(dimethylamino)-1-propynyl]-4-pyridyl}-5-methyl-1,4-diazepan-1-yl]-6-amino-3-pyridazinyl}phenol], the DC50 in test [1] and in test [2] was 50 to 500 nM each time. The “SMARCA2 % Degradation @ 1 μM” value in test [1] (1 μM) is reported as “+ (+=<30%)”.
The compound `C[C@@H]1CCN(c2cc(-c3ccccc3O)nnc2N)CCN1c1ccnc(C#CCN2CC3(CCC3(F)F)C2)n1` [Compound P-201, o-{5-[(R)-4-(2-{3-(5,5-difluoro-2-aza-2-spiro[3.3]hcptyl)-1-propynyl}-4-pyrimidinyl)-5-methyl-1,4-diazepan-1-yl]-6-amino-3-pyridazinyl}phenol] displayed a half-maximal degradation concentration (DC50) in test [1] of 50 to 500 nM. Moreover, in test [1] (@ 1 μM), the “SMARCA2 % Degradation @ 1 μM” value was “+++ (+++=>70%)”. In test [2], the half-maximal degradation concentration (DC50) lay in the range of 50 to 500 nM and the inhibition at 1 µM is 30 to 70%.
In turn, `Nc1nnc(-c2ccccc2O)cc1N1CC2(CCN(c3ccnc(C#CCNC(=O)c4cc5ncccn5n4)n3)CC2)C1` [Compound P-31, N-(3-(4-(2-(3-amino-6-(2-hydroxyphenyl)pyridazin-4-yl)-2,7-diazaspiro[3.5]nonan-7-yl)pyrimidin-2-yl)prop-2-yn-1-yl)pyrazolo[1,5-a]pyrimidine-2-carboxamide] registered a DC50 in test [1] of 50 to 500 nM. Further, the “SMARCA2 % Degradation @ 1 μM” value in test [1] (@ 1 μM) is listed as “++ (++=30-70%)”. In test [2], this compound displayed a half-maximal degradation concentration (DC50) of 50 to 500 nM and an inhibition at 1 µM of 30 to 70%.
For `Cc1cnc(C#CCN(C)C)nc1N1CCN(c2cc(-c3ccccc3O)nnc2N)CC[C@H]1C` [Compound P-229, o-{5-[(R)-4-{2-[3-(dimethylamino)-1-propynyl]-5-methyl-4-pyrimidinyl}-5-methyl-1,4-diazepan-1-yl]-6-amino-3-pyridaziny1}phenol], the half-maximal degradation concentration (DC50) in test [1] is < 50 nM. In addition, the “SMARCA2 % Degradation @ 1 μM” value in test [1] (@ 1 μM) is “+++ (+++=>70%)”. For the same compound, in test [2], the half-maximal degradation concentration (DC50) lay in the range of 50 to 500 nM and the inhibition at 1 µM lay within 30 to 70%.
Consider `C[C@@H]1CCN(c2cc(-c3ccccc3O)nnc2N)CCN1c1ccnc(/C=C/CN2CCOCC2)n1` [Compound P-167, o-(5-{(R)-5-methyl-4-[2-(3-morpholino-1-propenyl)-4-pyrimidinyl]-1,4-diazepan-1-y1}-6-amino-3-pyridazinyl)phenol], for which, in test [1], the DC50 is < 50 nM. Further, the “SMARCA2 % Degradation @ 1 μM” value in test [1] (@ 1 μM) is recorded as “++ (++=30-70%)”. Moreover, in test [2], the half-maximal degradation concentration (DC50) was < 50 nM and the inhibition at 1 µM was < 30%.
The compound `C[C@@H]1CCN(c2cc(-c3ccccc3O)nnc2N)CCN1c1ccnc(/C=C/CN(C)C)n1` [Compound P-218, o-{5-[(R)-4-{2-[(E)-3-(dimethylamino)-1-propenyl]-4-pyrimidinyl}-5-methyl-1,4-diazepan-1-yl]-6-amino-3-pyridazinyl}phenol] displayed a DC50 in test [1] of 50 to 500 nM. Moreover, the “SMARCA2 % Degradation @ 1 μM” value in test [1] (@ 1 μM) is “+++ (+++=>70%)”. In test [2], the DC50 is 50 to 500 nM and the inhibition at 1 µM was in the range of 30 to 70%.
As for `C[C@H]1CN(c2ccnc(C#CCN)n2)CCN1c1cc(-c2ccccc2O)nnc1N` [Compound P-86, (S)-2-(6-amino-5-(4-(2-(3-aminoprop-1-yn-1-yl)pyrimidin-4-yl)-2-methylpiperazin-1-yl)pyridazin-3-yl)phenol], the DC50 in test [1] is 500 to 5000 nM; in test [2], > 5000 nM. The “SMARCA2 % Degradation @ 1 μM” value in test [1] (@ 1 μM) is “+ (+=<30%)”.
Regarding `Nc1nnc(-c2ccccc2O)cc1N1CCCN(c2ccnc(C#CC34CCCN3CCC4)n2)CC1` [Compound P-355, 0-[6-amino-5-(4-{2-[2-(hexahydro-1H-pyrrolizin-7a-yl)ethynyl]-4-pyrimidinyl}-1,4-diazepan-1-yl)-3-pyridazinyl]phenol], in test [1], the half-maximal degradation concentration (DC50) fell in the range of 50 to 500 nM. For the same compound, the “SMARCA2 % Degradation @ 1 μM” value in test [1] (@ 1 μM) is “+++ (+++=>70%)”. In addition, in test [2], the DC50 was 50 to 500 nM and the inhibition at 1 µM is > 70%.
For the compound `CC(C)(C)OC(=O)N1CCN(CC#Cc2nccc(N3CCCN(c4cc(-c5ccccc5O)nnc4N)CC3)n2)CC1` [Compound P-143, tert-butyl 4-(3-(4-(4-(3-amino-6-(2-hydroxyphenyl)pyridazin-4-yl)-1,4-diazepan-1-yl)pyrimidin-2-yl)prop-2-yn-1-yl)piperazine-1-carboxylate], the DC50 in test [1] and in test [2] was 50 to 500 nM each time. In addition, the “SMARCA2 % Degradation @ 1 μM” value in test [1] (@ 1 μM) is listed as “+++ (+++=>70%)”. In test [2], this compound displayed an inhibition at 1 µM of 30 to 70%.
